Article PMC5218821 (Journal of ocular biology, 2016)

Target: T1, soluble epoxide hydrolase (sEH) (Oryctolagus cuniculus, UniProt A0A5F9CRP6)
T1 construct: gene ADAM2
T1 sequence (A0A5F9CRP6 1-555): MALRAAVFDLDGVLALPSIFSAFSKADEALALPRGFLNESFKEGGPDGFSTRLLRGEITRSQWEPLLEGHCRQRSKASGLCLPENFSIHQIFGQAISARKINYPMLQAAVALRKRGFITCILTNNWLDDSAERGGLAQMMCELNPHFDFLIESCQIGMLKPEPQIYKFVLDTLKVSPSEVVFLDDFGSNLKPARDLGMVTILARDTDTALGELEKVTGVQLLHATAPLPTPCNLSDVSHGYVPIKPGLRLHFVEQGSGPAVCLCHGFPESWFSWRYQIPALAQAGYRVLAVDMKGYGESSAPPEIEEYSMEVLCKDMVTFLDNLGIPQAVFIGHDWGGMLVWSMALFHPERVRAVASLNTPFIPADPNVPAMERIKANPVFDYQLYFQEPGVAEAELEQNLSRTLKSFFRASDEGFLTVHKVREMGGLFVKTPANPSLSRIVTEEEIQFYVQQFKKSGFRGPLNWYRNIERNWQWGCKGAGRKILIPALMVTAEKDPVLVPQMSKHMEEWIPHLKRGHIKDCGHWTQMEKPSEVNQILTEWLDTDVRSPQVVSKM
Experiment: biochemical

In the case of `CS(=O)(=O)N1CCC(NC(=O)Nc2ccc(OC(F)(F)F)cc2)CC1` [UC1709, TUPS], the IC50 is reported as 88 nM.
